Results from patent US8916183B2, “Pesticidal compositions and processes related thereto” (priority 2012, dated 2014).
Read-outs that look alike come from different tables or passages of the source.

What was measured:
[1] = system: Beet Armyworm (BAW) (Spodoptera exigua); experiment: Bioassay on beet armyworm (BAW), 128-well diet tray assay; assay type: in vivo; settings: Spodoptera exigua, read-out: % Mortality BAW 50 μg/cm^2
Method: (§1) Certain molecules disclosed in this document were tested against BAW and CEW using procedures described in the following examples. In the reporting of the results, the “BAW & CEW Rating Table” was used (See Table Section).
Bioassays on BAW (Spodoptera exigua)
Bioassays on BAW were conducted using a 128-well diet tray assay. […] Trays were covered with a clear self-adhesive cover and held at 25° C., 14:10 light-dark for five to seven days. Percent mortality was recorded for the larvae in each well; activity in the eight wells was then averaged. The results are indicated in the table entitled “Table 5: Biological Results” (See Table Section).

[2] = system: Corn Earworm (CEW) (Helicoverpa zea); experiment: Bioassay on corn earworm (CEW), 128-well diet tray assay; assay type: in vivo; settings: Helicoverpa zea, read-out: % Mortality CEW 50 μg/cm^2
Method: as §1
Bioassays on CEW (Helicoverpa zea)
Bioassays on CEW were conducted using a 128-well diet tray assay. […] Trays were covered with a clear self-adhesive cover and held at 25° C., 14:10 light-dark for five to seven days. Percent mortality was recorded for the larvae in each well; activity in the eight wells was then averaged. The results are indicated in the table entitled “Table 5: Biological Results” (See Table Section).

SMILES | mortality at 50 µg/cm2 ([1]; beet armyworm, 50 μg/cm^2) [%] | mortality at 50 µg/cm2 ([2]; corn earworm, 50 μg/cm^2) [%] | mortality at 50 µg/cm2 [1] [%] | mortality at 50 µg/cm2 [2] [%]
CC(C)c1ccccc1N1/C(=N/N=C/c2ccc(-c3ncn(-c4ccc(OC(F)(F)F)cc4)n3)cc2)SCC1(O)C(F)(F)F (racemic) [Compound 246C] | 50 to 100 | 50 to 100 |  | 
COc1cc(C)c(N2C(=O)CSC2=NN=Cc2ccc(-c3ncn(-c4ccc(OC(F)(F)F)cc4)n3)cc2)c(C)c1 (stereo in doubt) [Compound 69C, (Z)-3-(4-methoxy-2,6-dimethylphenyl)-2-((E)-(4-(1-(4-(trifluoromethoxy)phenyl)-1H-1,2,4-triazol-3-yl)benzylidene)hydrazono)thiazolidin-4-one] | 50 to 100 | 50 to 100 |  | 
COc1cc(C)c(/N=C(\N/N=C/c2ccc(-c3ncn(-c4ccc(C(F)(F)F)cc4)n3)cc2)SCOC(=O)CNC(=O)OCc2ccccc2)c(C)c1 [Compound 45C] |  |  | 50 to 100 | 50 to 100
COc1cc(C)c(/N=C(/N/N=C/c2ccc(-c3ncn(-c4ccc(OC(F)(F)F)cc4)n3)cc2)SCC(=O)O)c(C)c1 [Compound 48C] | 50 to 100 | 50 to 100 |  | 
COc1ccc(/N=C(/N/N=C/c2ccc(-c3ncn(-c4ccc(OC(F)(F)C(F)(F)F)cc4)n3)cc2)SCC(=O)O)c(C)c1 [Compound 50C] | 50 to 100 | 50 to 100 |  | 
Cc1cccc(C)c1/N=C(/N/N=C/c1ccc(-c2ncn(-c3ccc(OC(F)(F)F)cc3)n2)cc1)SCC(=O)NC[C@@H]1CCCN(C(=O)OC(C)(C)C)C1 [Compound 56C, (S)-tert-butyl 3-((2-((Z)-(2,6-dimethylphenylimino)-((E)-2-(4-(1-(4-(trifluoromethoxy)phenyl)-1H-1,2,4-triazol-3-yl)benzylidene)hydrazinyl)-methylthio)acetamido)methyl)piperidine-1-carboxylate] | 50 to 100 | 50 to 100 |  | 
Cc1cccc(C)c1/N=C(/N/N=C/c1ccc(-c2ncn(-c3ccc(OC(F)(F)F)cc3)n2)cc1)SCC(=O)NCCCN(C)C(=O)OC(C)(C)C [Compound 61C] |  |  | 50 to 100 | 50 to 100
COc1cccc(N2C(=O)CS/C2=N\N=C\c2ccc(-c3ncn(-c4ccc(OC(F)(F)F)cc4)n3)cc2)c1 [Compound 91C] | 0 | 0 |  | 
CN(C)c1cccc(N2C(=O)CS/C2=N\N=C\c2ccc(-c3ncn(-c4ccc(OC(F)(F)F)cc4)n3)cc2)c1 [Compound 97C] | 50 to 100 | 50 to 100 |  | 
CCOc1cccc(OCC)c1N1C(=O)CS/C1=N\N=C\c1ccc(-c2ncn(-c3ccc(OC(F)(F)F)cc3)n2)cc1 [Compound 98C] | 50 to 100 |  |  | 
O=C1CS/C(=N\N=C\c2ccc(-c3ncn(-c4ccc(OC(F)(F)F)cc4)n3)cc2)N1c1c(Br)cccc1Br [Compound 99C] | 50 to 100 | 50 to 100 |  | 
Cc1cccc(C)c1N1C(=O)CS/C1=N\N=C\c1ccc(-c2ncn(-c3ccc(OC(F)(F)C(F)(F)F)cc3)n2)cc1 [Compound 100C] | 50 to 100 | 50 to 100 |  | 
COc1cc(C)c(N2C(=O)CS/C2=N\N=C\c2ccc(-c3ncn(-c4ccc(OC(F)(F)F)cc4)n3)cc2)c(C)n1 [Compound 101C] | 50 to 100 | 50 to 100 |  | 
O=C1CS/C(=N\N=C\c2ccc(-c3cn(-c4ccc(OC(F)(F)F)cc4)cn3)cc2)N1c1c(Cl)cccc1Cl [Compound 102C] | 50 to 100 | 50 to 100 |  | 
Cc1cccc(C)c1N1C(=O)CS/C1=N\N=C\c1ccc(-c2ccn(-c3ccc(OC(F)(F)F)cc3)n2)cc1 [Compound 103C] | 50 to 100 | 50 to 100 |  | 
Cc1cccc(C)c1N1C(=O)CS/C1=N\N=C\c1ccc(-c2cnn(-c3ccc(OC(F)(F)F)cc3)c2)cc1 [Compound 104C] | 50 to 100 | 50 to 100 |  | 
Cc1cc(Cl)cc(C)c1N1C(=O)CS/C1=N\N=C\c1ccc(-c2ncn(-c3ccc(OC(F)(F)F)cc3)n2)cc1 [Compound 105C] | 50 to 100 | 50 to 100 |  | 
O=C1CS/C(=N\N=C\c2ccc(-c3ncn(-c4ccc(OC(F)(F)F)cc4)n3)cc2)N1c1ccccc1Cl [Compound 106C] | 50 to 100 | 50 to 100 |  | 
CCOC(=O)c1ccccc1N1C(=O)CS/C1=N\N=C\c1ccc(-c2ncn(-c3ccc(OC(F)(F)F)cc3)n2)cc1 [Compound 107C] | 0 | 0 |  | 
COC(=O)C1CC(c2ccc(/C=N/N=C3\SCC(=O)N3c3c(Cl)cccc3Cl)cc2)=NN1c1ccc(OC(F)(F)F)cc1 (stereo not shown) [Compound 109C] | 50 to 100 | 50 to 100 |  | 

SMILES | mortality at 50 µg/cm2 ([1]; beet armyworm, 50 μg/cm^2) [%] | mortality at 50 µg/cm2 ([2]; corn earworm, 50 μg/cm^2) [%] | mortality at 50 µg/cm2 [1] [%] | mortality at 50 µg/cm2 [2] [%]
COC(=O)C1CC(c2ccc(/C=N/N=C3\SCC(=O)N3c3c(C)cccc3C)cc2)=NN1c1ccc(OC(F)(F)F)cc1 (stereo not shown) [Compound 110C] | 50 to 100 | 50 to 100 |  | 
Cc1ccccc1N1C(=O)CS/C1=N\N=C\c1ccc(-c2ncn(-c3ccc(OC(F)(F)F)cc3)n2)cc1 [Compound 113C] | 50 to 100 | 50 to 100 |  | 
COc1ccc(N2C(=O)CS/C2=N\N=C\c2ccc(-c3ncn(-c4ccc(OC(F)(F)F)cc4)n3)cc2)c(C)c1 [Compound 114C] | 50 to 100 | 50 to 100 |  | 
COc1ccc(N2C(=O)CS/C2=N\N=C\c2ccc(-c3ncn(-c4ccc(OC(F)(F)F)cc4)n3)cc2)cc1 [Compound 115C] | 0 to 50 | 0 |  | 
CCOc1ccccc1N1C(=O)CS/C1=N\N=C\c1ccc(-c2ncn(-c3ccc(OC(F)(F)F)cc3)n2)cc1 [Compound 116C] | 50 to 100 | 50 to 100 |  | 
CC(C)c1ccccc1N1C(=O)CS/C1=N\N=C\c1ccc(-c2ncn(-c3ccc(C(F)(F)F)cc3)n2)cc1 [Compound 120C] | 50 to 100 | 50 to 100 |  | 
C/C(=N\N=C1/SCC(=O)N1c1ccccc1CC(C)C)c1ccc(-c2ncn(-c3ccc(OC(F)(F)F)cc3)n2)cc1 [Compound 122C] | 50 to 100 | 50 to 100 |  | 
CCc1cccnc1N1C(=O)CS/C1=N\N=C\c1ccc(-c2ncn(-c3ccc(OC(F)(F)F)cc3)n2)cc1 [Compound 123C] | 50 to 100 | 50 to 100 |  | 
O=C1CS/C(=N\N=C\c2ccc(-c3ncn(-c4ccc(OC(F)(F)F)cc4)n3)cc2)N1c1ccccc1OC(F)(F)F [Compound 124C] | 50 to 100 | 50 to 100 |  | 
CC(C)(C)c1ccccc1N1C(=O)CS/C1=N\N=C\c1ccc(-c2ncn(-c3ccc(OC(F)(F)F)cc3)n2)cc1 [Compound 125C] | 50 to 100 | 50 to 100 |  | 
O=C1CS/C(=N\N=C\c2ccc(-c3ncn(-c4ccc(OC(F)(F)F)cc4)n3)cc2)N1c1ccccc1OC(F)F [Compound 126C] | 50 to 100 | 50 to 100 |  | 
CC1S/C(=N\N=C\c2ccc(-c3ncn(-c4ccc(OC(F)(F)F)cc4)n3)cc2)N(c2ccccc2C2CC2)C1=O (stereo not shown) [Compound 127C] | 50 to 100 | 50 to 100 |  | 
CCCc1ccccc1N1C(=O)C(C)S/C1=N\N=C\c1ccc(-c2ncn(-c3ccc(OC(F)(F)F)cc3)n2)cc1 (stereo not shown) [Compound 128C] | 50 to 100 | 50 to 100 |  | 
CC1S/C(=N\N=C\c2ccc(-c3ncn(-c4ccc(OC(F)(F)F)cc4)n3)cc2)N(c2c(Cl)cccc2Cl)C1=O (stereo not shown) [Compound 129C] | 50 to 100 | 50 to 100 |  | 
CC1S/C(=N\N=C\c2ccc(-c3ncn(-c4ccc(OC(F)(F)F)cc4)n3)cc2)N(c2c(F)cccc2Cl)C1=O (stereo not shown) [Compound 130C] | 50 to 100 | 50 to 100 |  | 
CC(C)c1ccccc1N1CCS/C1=N\N=C\c1ccc(-c2ncn(-c3ccc(C(F)(F)F)cc3)n2)cc1 [Compound 134C] | 50 to 100 | 50 to 100 |  | 
Fc1cccc(Cl)c1N1CCS/C1=N\N=C\c1ccc(-c2ncn(-c3ccc(OC(F)(F)F)cc3)n2)cc1 [Compound 143C] | 50 to 100 | 50 to 100 |  | 
FC(F)(F)Oc1ccc(-n2cnc(-c3ccc(/C=N/N=C4\SCCN4c4ccccc4-c4ccccc4)cc3)n2)cc1 [Compound 144C] | 50 to 100 | 50 to 100 |  | 
CCc1cc(OC)ccc1N1/C(=N/N=C/c2ccc(-c3ncn(-c4ccc(OC(F)(F)C(F)(F)F)cc4)n3)cc2)SCC1(C)O (stereo not shown) [Compound 264C] | 50 to 100 |  |  | 
